# How the values were obtained:
# [1] = Volume of distribution at steady state in Lewis rat at 1 mg/kg, iv measured up to 24 hrs by LC-MS/MS method; format: ADME, organism-based; settings: in vivo, read-out: Vdss
# [2] = AUC in Lewis rat at 1 mg/kg, iv measured up to 24 hrs by LC-MS/MS method; format: ADME, organism-based; set-up: route intravenous, dose 1 mg/kg, time <=24; settings: in vivo
# [3] = Distribution coefficient between octanol and aqueous buffer, logD of the compound in pH 7.2 buffer
# [4] = AUC in Lewis rat at 5 mg/kg, po measured up to 24 hrs by LC-MS/MS method; format: ADME, organism-based; set-up: route oral, dose 5 mg/kg, time <=24; settings: in vivo
# [5] = Volume of distribution at steady state in Lewis rat at 5 mg/kg, po measured up to 24 hrs by LC-MS/MS method; format: ADME, organism-based; settings: in vivo
# [6] = Oral bioavailability in Lewis rat at 5 mg/kg measured up to 24 hrs by LC-MS/MS method; format: ADME, organism-based; settings: in vivo
# [7] = Metabolic stability in rat liver microsomes assessed as compound remaining at 1 uM measured up to 120 mins in presence of NADPH by HPLC-MS/MS analysis; format: ADME, Microsome; settings: read-out: Stabilty
# [8] = Clearance in Lewis rat at 5 mg/kg, po measured up to 24 hrs by LC-MS/MS method; format: ADME, organism-based; settings: in vivo
# [9] = Tmax in Lewis rat at 5 mg/kg, po measured up to 24 hrs by LC-MS/MS method; format: ADME, organism-based; settings: in vivo
# [10] = Half life in Lewis rat at 5 mg/kg, po measured up to 24 hrs by LC-MS/MS method; format: ADME, organism-based; settings: in vivo
# [11] = MRT in Lewis rat at 1 mg/kg, iv measured up to 24 hrs by LC-MS/MS method; format: ADME, organism-based; settings: in vivo
# [12] = Cmax in Lewis rat at 5 mg/kg, po measured up to 24 hrs by LC-MS/MS method; format: ADME, organism-based; set-up: route oral, dose 5 mg/kg, time <=24; settings: in vivo
# [13] = Clearance in Lewis rat at 1 mg/kg, iv measured up to 24 hrs by LC-MS/MS method; format: ADME, organism-based; settings: in vivo
# [14] = MRT in Lewis rat at 5 mg/kg, po measured up to 24 hrs by LC-MS/MS method; format: ADME, organism-based; settings: in vivo
# [15] = Half life in Lewis rat at 1 mg/kg, iv measured up to 24 hrs by LC-MS/MS method; format: ADME, organism-based; settings: in vivo
# [16] = Aqueous solubility of compound by HPLC analysis; format: physicochemical; settings: buffer
compound,measurement,setting,value
CCS(=O)(=O)N1CC(CC#N)(n2cc(-c3ncnc4[nH]ccc34)cn2)C1 [BARICITINIB],Vd,[1],1.8 L/kg
same,AUC at 24 h,[2],1590 ng·h/mL
same,logD,[3],0.24
same,AUC at 24 h,[4],3610 ng·h/mL
same,Vdss,[5],4.88 L/kg
same,bioavailability,[6],45.5%
same,"remaining at 2 h, 1 µM",[7],96.1%
same,clearance,[8],23.2 mL/min/kg
same,Tmax,[9],1 h
same,half-life,[10],2.43 h
same,MRT,[11],1.34 h
same,Cmax,[12],659 ng/mL
same,clearance,[13],10.5 mL/min/kg
same,MRT,[14],4.36 h
same,half-life,[15],1.96 h
same,solubility,[16],16.3 µg/mL

# — ChEMBL document CHEMBL4811248, “Discovery of imidazopyrrolopyridines derivatives as novel and selective inhibitors of JAK2” (Eur J Med Chem, 2021)
